Activity calls are given as the source filed them. The rule behind the calls is not given here. Where a SMILES comes first, the peptide text is derived from it. Bridges are numbered along the chain shown (N, C = ends).
Tests used:
[1] = biological target: Neuronal acetylcholine receptor; alpha9/alpha10 (Homo sapiens) (UniProt Q9UGM1+Q9GZZ6); experiment: Antagonist activity at human wild type alpha9alpha10 nAChR expressed in acetylcholine-induced Xenopus laevis oocytes assessed as inhibition of acetylcholine-induced current at 30 nM by two electrode voltage-clamp assay relative to control; type: cell-based; conditions: Oocyte
[2] = biological target: Voltage-dependent N-type calcium channel subunit alpha-1B (Homo sapiens, UniProt Q00975); experiment: Inhibition of human Cav2.2 channel transfected in HEK293T cells co-expressed with human GABAB receptor assessed as inhibition of Cav2.2-mediated Ba2+ current at 100 nM measured for 3 to 5 days by whole-cell patch clamp assay; type: cell-based; conditions: time 3-5 day
Chain of Voltage-dependent N-type calcium channel subunit alpha-1B (Q00975 whole entry, looked up): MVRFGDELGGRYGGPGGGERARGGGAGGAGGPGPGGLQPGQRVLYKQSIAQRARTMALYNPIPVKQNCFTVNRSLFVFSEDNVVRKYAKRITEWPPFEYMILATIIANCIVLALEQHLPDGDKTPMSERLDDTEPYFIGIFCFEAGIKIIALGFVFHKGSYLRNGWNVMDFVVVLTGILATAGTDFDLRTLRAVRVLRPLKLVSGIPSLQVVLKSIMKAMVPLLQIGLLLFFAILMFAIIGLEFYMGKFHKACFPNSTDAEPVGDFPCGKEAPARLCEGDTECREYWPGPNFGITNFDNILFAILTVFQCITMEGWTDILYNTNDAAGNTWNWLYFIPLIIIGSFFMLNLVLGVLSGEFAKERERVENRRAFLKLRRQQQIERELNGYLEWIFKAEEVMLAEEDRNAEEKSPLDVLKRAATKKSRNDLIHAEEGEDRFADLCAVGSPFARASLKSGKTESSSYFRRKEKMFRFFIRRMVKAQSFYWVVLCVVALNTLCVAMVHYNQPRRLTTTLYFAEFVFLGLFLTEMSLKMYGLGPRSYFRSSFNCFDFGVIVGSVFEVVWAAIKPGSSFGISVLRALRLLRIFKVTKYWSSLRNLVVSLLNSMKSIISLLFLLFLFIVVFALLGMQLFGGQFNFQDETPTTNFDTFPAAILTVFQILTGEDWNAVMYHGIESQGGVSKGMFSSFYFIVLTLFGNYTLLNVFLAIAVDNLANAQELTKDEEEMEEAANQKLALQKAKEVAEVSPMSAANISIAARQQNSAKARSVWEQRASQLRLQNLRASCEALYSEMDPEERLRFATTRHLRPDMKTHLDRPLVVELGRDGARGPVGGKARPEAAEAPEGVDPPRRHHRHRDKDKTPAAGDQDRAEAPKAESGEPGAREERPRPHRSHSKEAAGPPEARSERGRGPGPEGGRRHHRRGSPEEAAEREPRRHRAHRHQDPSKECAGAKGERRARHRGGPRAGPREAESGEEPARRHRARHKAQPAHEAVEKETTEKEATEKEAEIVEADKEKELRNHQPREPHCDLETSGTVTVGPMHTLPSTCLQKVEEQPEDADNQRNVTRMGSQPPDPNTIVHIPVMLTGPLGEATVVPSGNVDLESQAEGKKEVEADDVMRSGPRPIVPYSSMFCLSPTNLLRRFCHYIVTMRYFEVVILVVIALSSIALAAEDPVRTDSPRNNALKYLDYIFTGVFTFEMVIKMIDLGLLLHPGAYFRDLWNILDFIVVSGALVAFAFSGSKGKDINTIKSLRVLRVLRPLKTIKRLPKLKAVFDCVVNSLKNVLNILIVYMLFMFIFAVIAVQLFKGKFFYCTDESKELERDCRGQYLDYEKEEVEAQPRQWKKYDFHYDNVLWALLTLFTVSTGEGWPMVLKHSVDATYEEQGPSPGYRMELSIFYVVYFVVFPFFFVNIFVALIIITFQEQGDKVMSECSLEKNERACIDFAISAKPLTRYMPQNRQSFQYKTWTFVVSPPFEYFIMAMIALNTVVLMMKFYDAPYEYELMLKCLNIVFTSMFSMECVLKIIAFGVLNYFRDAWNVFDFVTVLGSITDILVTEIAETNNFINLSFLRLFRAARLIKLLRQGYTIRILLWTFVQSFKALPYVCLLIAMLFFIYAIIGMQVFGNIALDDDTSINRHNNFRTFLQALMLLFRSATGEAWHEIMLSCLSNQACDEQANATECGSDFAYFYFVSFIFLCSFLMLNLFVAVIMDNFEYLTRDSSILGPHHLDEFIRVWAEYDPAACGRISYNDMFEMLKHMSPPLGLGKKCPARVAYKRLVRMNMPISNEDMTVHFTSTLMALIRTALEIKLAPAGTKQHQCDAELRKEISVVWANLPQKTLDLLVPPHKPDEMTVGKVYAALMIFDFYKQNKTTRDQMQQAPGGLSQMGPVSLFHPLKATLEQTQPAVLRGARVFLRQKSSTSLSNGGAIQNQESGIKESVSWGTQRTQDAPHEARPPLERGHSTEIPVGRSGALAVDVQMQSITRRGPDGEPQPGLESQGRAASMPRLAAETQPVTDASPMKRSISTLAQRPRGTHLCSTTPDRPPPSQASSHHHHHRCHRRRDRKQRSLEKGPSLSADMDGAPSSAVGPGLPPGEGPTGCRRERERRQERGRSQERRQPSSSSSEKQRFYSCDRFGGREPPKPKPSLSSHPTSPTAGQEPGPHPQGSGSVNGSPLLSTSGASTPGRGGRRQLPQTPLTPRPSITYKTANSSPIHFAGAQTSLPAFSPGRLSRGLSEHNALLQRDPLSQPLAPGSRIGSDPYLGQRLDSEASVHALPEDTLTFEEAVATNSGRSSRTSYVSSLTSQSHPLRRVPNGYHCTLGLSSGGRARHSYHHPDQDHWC

Compound | inhibition [1] | inhibition [2] | inhibition ([1]; filed as antagonist)
CC[C@@H](C)[C@@H](NC(=O)[C@@H](CCCNC(=N)N)NC(=O)[C@@H](CCCNC(=N)N)NC(=O)[C@@H](Cc1ccc(O)cc1)NC(=O)[C@@H](CCCNC(=N)N)NC(=O)[C@@H](CCCNC(=N)N)NC(=O)[C@@H](CCCNC(=N)N)NC(=O)[C@@H](CCCNC(=N)N)NC(=O)[C@@H](CC(=O)O)NC(=O)[C@@H](Cc1ccc(O)cc1)NC(=O)[C@H]1CCCN1C(=O)[C@@H](CO)NC(=O)[C@@H](CCCNC(=N)N)NC(=O)[C@@H](Cc1ccc(O)cc1)NC(=O)[C@@H](CCCNC(=N)N)NC(=O)CN)C(=O)N[C@@H](C(=O)N[C@H](CC(=O)O)C(N)=O)[C@H](C)O | 25% | – | –
N=C(N)NCCC[C@@H]1NC(=O)[C@H](CCCNC(=N)N)NC(=O)[C@H](CCCNC(=N)N)NC(=O)[C@H](CCCNC(=N)N)NC(=O)[C@H](CC(=O)O)NC(=O)[C@H](Cc2ccc(O)cc2)NC(=O)[C@@H]2CCCN2C(=O)[C@H](CO)NC(=O)[C@H](CCCNC(=N)N)NC(=O)[C@@H](N)CSSC[C@@H](C(N)=O)NC(=O)[C@H](Cc2ccc(O)cc2)NC1=O (H-CRSPYDRRRRYC-NH2; disulfide 1-12) | 25% | – | –
CC[C@H](C)[C@H](NC(=O)[C@H](CCCNC(=N)N)NC(=O)[C@H](CCCNC(=N)N)NC(=O)[C@@H]1CSSC[C@H](N)C(=O)N[C@@H](CCCNC(=N)N)C(=O)N[C@@H](CO)C(=O)N2CCC[C@H]2C(=O)N[C@@H](Cc2ccc(O)cc2)C(=O)N[C@@H](CC(=O)O)C(=O)N[C@@H](CCCNC(=N)N)C(=O)N[C@@H](CCCNC(=N)N)C(=O)N[C@@H](CCCNC(=N)N)C(=O)N[C@@H](CCCNC(=N)N)C(=O)N[C@@H](Cc2ccc(O)cc2)C(=O)N1)C(=O)N[C@H](C(=O)N[C@@H](CC(=O)O)C(N)=O)[C@@H](C)O (H-CRSPYDRRRRYCRRITD-NH2; disulfide 1-12) | 25% | – | –
CC[C@H](C)[C@H](NC(=O)[C@H](CCCNC(=N)N)NC(=O)[C@H](CCCNC(=N)N)NC(=O)[C@@H]1CSSC[C@H](NC(=O)[C@H](Cc2ccc(O)cc2)NC(=O)[C@H](CCCNC(=N)N)NC(=O)CN)C(=O)N[C@@H](CCCNC(=N)N)C(=O)N[C@@H](CO)C(=O)N2CCC[C@H]2C(=O)N[C@@H](Cc2ccc(O)cc2)C(=O)N[C@@H](CC(=O)O)C(=O)N[C@@H](CCCNC(=N)N)C(=O)N[C@@H](CCCNC(=N)N)C(=O)N[C@@H](CCCNC(=N)N)C(=O)N[C@@H](CCCNC(=N)N)C(=O)N[C@@H](Cc2ccc(O)cc2)C(=O)N1)C(=O)N[C@H](C(=O)N[C@@H](CC(=O)O)C(N)=O)[C@@H](C)O (H-GRYCRSPYDRRRRYCRRITD-NH2; disulfide 4-15) | 25% | – | –
CC[C@H](C)[C@H](NC(=O)[C@H](CCCNC(=N)N)NC(=O)[C@H](CCCNC(=N)N)NC(=O)[C@@H]1CSSC[C@H](NC(=O)[C@H](Cc2ccc(O)cc2)NC(=O)[C@@H](N)CCCNC(=N)N)C(=O)N[C@@H](CCCNC(=N)N)C(=O)N[C@@H](CO)C(=O)N2CCC[C@H]2C(=O)N[C@@H](Cc2ccc(O)cc2)C(=O)N[C@@H](CC(=O)O)C(=O)N[C@@H](CCCNC(=N)N)C(=O)N[C@@H](CCCNC(=N)N)C(=O)N[C@@H](CCCNC(=N)N)C(=O)N[C@@H](CCCNC(=N)N)C(=O)N[C@@H](Cc2ccc(O)cc2)C(=O)N1)C(=O)N[C@H](C(=O)N[C@@H](CC(=O)O)C(N)=O)[C@@H](C)O (H-RYCRSPYDRRRRYCRRITD-NH2; disulfide 3-14) | 25% | – | –
CC[C@H](C)[C@H](NC(=O)[C@H](CCCNC(=N)N)NC(=O)[C@H](CCCNC(=N)N)NC(=O)[C@@H]1CSSC[C@H](NC(=O)[C@@H](N)Cc2ccc(O)cc2)C(=O)N[C@@H](CCCNC(=N)N)C(=O)N[C@@H](CO)C(=O)N2CCC[C@H]2C(=O)N[C@@H](Cc2ccc(O)cc2)C(=O)N[C@@H](CC(=O)O)C(=O)N[C@@H](CCCNC(=N)N)C(=O)N[C@@H](CCCNC(=N)N)C(=O)N[C@@H](CCCNC(=N)N)C(=O)N[C@@H](CCCNC(=N)N)C(=O)N[C@@H](Cc2ccc(O)cc2)C(=O)N1)C(=O)N[C@H](C(=O)N[C@@H](CC(=O)O)C(N)=O)[C@@H](C)O (H-YCRSPYDRRRRYCRRITD-NH2; disulfide 2-13) | 25% | – | –
CC[C@H](C)[C@@H]1NC(=O)[C@H](CCCNC(=N)N)NC(=O)[C@H](CCCNC(=N)N)NC(=O)[C@@H]2CSSC[C@H](NC(=O)[C@H](Cc3ccc(O)cc3)NC(=O)[C@H](CCCNC(=N)N)NC(=O)CNC(=O)[C@H](CC(=O)O)NC(=O)[C@H]([C@@H](C)O)NC1=O)C(=O)N[C@@H](CCCNC(=N)N)C(=O)N[C@@H](CO)C(=O)N1CCC[C@H]1C(=O)N[C@@H](Cc1ccc(O)cc1)C(=O)N[C@@H](CC(=O)O)C(=O)N[C@@H](CCCNC(=N)N)C(=O)N[C@@H](CCCNC(=N)N)C(=O)N[C@@H](CCCNC(=N)N)C(=O)N[C@@H](CCCNC(=N)N)C(=O)N[C@@H](Cc1ccc(O)cc1)C(=O)N2 (cyclo(CRRITDGRYCRSPYDRRRRY); disulfide 1-10) | 25% | – | –
H-ARYRSPYDRRRRYRRITD-NH2 | 20% | – | –
H-DRYRSPYDRRRRYRRITD-NH2 | 0% | – | –
H-GAYRSPYDRRRRYRRITD-NH2 | 20% | – | –
H-GDYRSPYDRRRRYRRITD-NH2 | 0% | – | –
H-GRARSPYDRRRRYRRITD-NH2 | 20% | 10% | –
H-GRDRSPYDRRRRYRRITD-NH2 | – | – | Active
H-GRRRSPYDRRRRYRRITD-NH2 | 10% | – | –
H-GRYAAPYDRRRRYRRITD-NH2 | 20% | – | –
H-GRYASPYDRRRRYRRITD-NH2 | 20% | – | –
H-GRYDSPYDRRRRYRRITD-NH2 | 0% | – | –
H-GRYRDPYDRRRRYRRITD-NH2 | 0% | – | –
H-GRYRRPYDRRRRYRRITD-NH2 | – | – | > 80%
H-GRYRSAYDRRRRYRRITD-NH2 | 20% | – | –
H-GRYRSDYDRRRRYRRITD-NH2 | 0% | – | –
H-GRYRSPADRRRRYRRITD-NH2 | 20% | 60% | –
H-GRYRSPDDRRRRYRRITD-NH2 | – | – | Active
H-GRYRSPRDRRRRYRRITD-NH2 | 10% | – | –
H-GRYRSPYARRRRYRRITD-NH2 | 20% | 50% | –
H-GRYRSPYDARRRYRRITD-NH2 | 20% | 50% | –

Compound | inhibition [1] | inhibition [2] | inhibition ([1]; filed as antagonist)
H-GRYRSPYDDRRRYRRITD-NH2 | 0% | – | –
H-GRYRSPYDRARRYRRITD-NH2 | 20% | – | –
H-GRYRSPYDRDRRYRRITD-NH2 | 0% | – | –
H-GRYRSPYDRRARYRRITD-NH2 | – | – | Active
H-GRYRSPYDRRDRYRRITD-NH2 | 0% | – | –
H-GRYRSPYDRRRAYRRITD-NH2 | – | 10% | Active
H-GRYRSPYDRRRDYRRITD-NH2 | 0% | – | –
H-GRYRSPYDRRRRARRITD-NH2 | – | – | Active
H-GRYRSPYDRRRRDRRITD-NH2 | 0% | – | –
H-GRYRSPYDRRRRRRRITD-NH2 | inactive | – | –
H-GRYRSPYDRRRRYARITD-NH2 | – | 10% | Active
H-GRYRSPYDRRRRYDRITD-NH2 | 0% | – | –
H-GRYRSPYDRRRRYRAITD-NH2 | 20% | – | –
H-GRYRSPYDRRRRYRDDTD-NH2 | 0% | – | –
H-GRYRSPYDRRRRYRDIDD-NH2 | 0% | – | –
H-GRYRSPYDRRRRYRDITD-NH2 | 0% | – | –
H-GRYRSPYDRRRRYRRATD-NH2 | 20% | 80% | –
H-GRYRSPYDRRRRYRRIAD-NH2 | 20% | – | –
H-GRYRSPYDRRRRYRRIRD-NH2 | 10% | – | –
H-GRYRSPYDRRRRYRRITA-NH2 | 20% | 10% | –
H-GRYRSPYDRRRRYRRITR-NH2 | inactive | – | –
H-GRYRSPYDRRRRYRRRTD-NH2 | – | – | > 80%
H-GRYRSPYRRRRRYRRITD-NH2 | 10% | – | –
H-GRYRSRYDRRRRYRRITD-NH2 | 10% | – | –
H-RRYRSPYDRRRRYRRITD-NH2 | 10% | – | –

Reference: ChEMBL document CHEMBL5537181 (J Med Chem, 2024)
